Results reported in patent US10849912B2, “Method of sensitizing cancer cells to the cytotoxic effects of apoptosis inducing ligands in cancer treatment” (The United States of America, as represented by the …, priority 2016, dated 2020).
Entries after “also recorded” stand apart in the source; their conditions may differ.

Legend:
[1] = system: renal carcinoma cell lines (ACHN, SN12C, Caki-1, TK-10, UO-31); assay: Sensitization of renal carcinoma cells to TRAIL apoptosis, percentage decrease in cell number; assay type: cell-based; conditions: for percentage decrease in cell number, agent alone: absence of TRAIL, FIGS. 13B-17B, 13C-17C
From the text: (§1) This example provides a comparison of the activities of compound 1 with the Smac mimetics birinapant, GDC-0152, and LCL-161 and with the Bcl-2 antagonists ABT-199 and ABT-737 for sensitization of renal carcinoma and melanoma cells to TRAIL apoptosis.
(§2) The results for compound 1 are shown graphically in FIGS. 13A-22A. The results for Smac mimetics birinapant, GDC-0152, and LCL-161 are shown graphically in FIGS. 13B-22B. The results for Bcl-2 antagonists ART-199 and ABT-737 are shown graphically in FIGS. 13C-22C, FIGS. 13A-22A, 13B-22B, and 13C-22C depict the percentage decrease in cell number as a function of concentration. For FIGS. 13B-22B and 13C-22C, the dose response curve was obtained for one of the listed agents.

[2] = system: melanoma cells (M14, SK-MEL-28, UACC-62, SK-MEL-5, MALME-3M); assay: Sensitization of melanoma cells to TRAIL apoptosis, percentage decrease in cell number; assay type: cell-based; conditions: for percentage decrease in cell number, agent alone: absence of TRAIL, FIGS. 18B-22B, 18C-22C
From the text: as §1, §2

[3] = system: caspase-8; assay: Western blot of caspase-8 activation in ACHN cells treated with compound, with or without poly IC; assay type: cell-based; conditions: compound 125 nM-1 μM overnight, then 10 ug/ml polyIC for 3 hours
Description: (§3) ACHN cells were grown in RPMI (RPMI, 5% FBS, Pen-strep, NEAA, HEPES, Glutamax, Sodium Pyruvate, 2ME), 2×10^6 cells/well were plated in 6 well plates and grown overnight, on day 2 compound 9 or compound 1 were added, including duplicate plates and incubated overnight. On day 3 either media or 10 ug/ml polyIC was added for 3 hours. Cells were lysed in RIPA buffer (30 mM Tris-HCL pH 7.5, 150 mM NaCl, 10% glycerol, 1% Triton X-100) supplemented with Pierce Halt Protease and Phosphatase Inhibitor and 40 μM ZVAD, the RIPA buffer also contained Pierce Universal Nuclease. Protein concentrations were measured using the Pierce BCA Protein Assay (Thermo Fisher Scientific, Waltham, Mass.), Twenty micrograms of each sample was run on a Bolt Gel (Thermo Fisher Scientific), transferred to a PVDF membrane using the BioRad Trans-Blot Turbo Transfer System (BioRad, Hercules, Calif.), briefly placed in Methanol, dried, rehydrated, and blocked in Pierce Start Block buffer. […]

[4] = system: SKMEL28 melanoma cells; assay: Effect of pan caspase inhibitor ZVAD-FMK on growth inhibition by poly IC plus compound, MTS; assay type: cell-based, human; conditions: compound 1000 nM for 16-18 h, ZVAD-FMK 40 μM for 2 h, poly IC 20-24 h
Description: To assess the effects of pan caspase inhibitor ZVAD, SKMEL28 melanoma cells were treated with compounds 9 and 1 for 16-18 h. Subsequently, ZVAD-FMK (40 μM) or DMSO was added for 2 h followed by 20-24 h incubation in the presence or absence of poly IC. Cell viability was assessed by addition of MTS during the last four hours of poly IC treatment.
The growth inhibition as a function of poly IC concentration at 1000 nM concentrations of compounds 9 and 1 was determined, and the results shown in FIGS. 10A and 10B, respectively.

[5] = system: human M14 melanoma; assay: Xenograft model of human M14 melanoma, intratumoral compound; assay type: in vivo, athymic nude mice; conditions: 20 mg/Kg, once per week for four weeks
Description: Female nude athymic mice were obtained from Charles River Laboratory. All mice were kept under specific pathogen-free conditions with water and food given ad libitum. All experiments with mice were performed in compliance with the principles and procedures outlined in the National Institutes of Health Guide for the Care and Use of Animals and were approved by the National Cancer Institute at Frederick Animal Care and Use Committee.
For in vivo treatments with compounds 9 and 1, compound 9 and compound 1 stock solutions (0.5M and 0.25M in DMSO respectively) were diluted in 33% Trappsol and DMSO at a ratio of 7:1 and administered intratumorally or at the base of tumor in a volume of 20 ul at a dose of 20 mg/Kg of body weight. […]
Mice (nude athymic, female, 6-8-week old, n=5), were implanted subcutaneously with 0.2 ml of M14 melanoma cells (1×10^6/mouse) into the right flank. […] The appearance and growth of tumors were monitored twice every week. The greatest longitudinal diameter (length) and the greatest transverse diameter (width) of a palpable tumor were measured to the nearest 0.1 mm using a caliper. Tumor volume (mm^3) was calculated by the ellipsoidal formula Tumor volume=[…]. […]

[6] = system: cFLIP; assay: Western blot of cFLIP levels in ACHN cells treated with compound, with or without poly IC; assay type: cell-based; conditions: compound 125 nM-1 μM overnight, FIGS. 5A and 5B
Description: as §3

[7] = system: SK MEL28 melanoma cells; assay: Effect of bafilomycin on sensitization to poly IC, MTS cell viability; assay type: cell-based, human; conditions: 50 nM bafilomycin A, poly IC 36-48 h
Description: (§4) For all experiments, cells (ACHN (renal carcinoma), M14, SK MEL28, and Malme (human melanoma lines)) were plated at a concentration of 5000 cells/well overnight. All treatments were carried out the following day.
To inhibit TLR 3 signaling, cells were treated with compound 9, compound 1, or compound 10 for 4 hours followed by addition of 50 nM of Balfilomycin A or DMSO for 2.5 h. Subsequently poly IC was added for 36-48 h and cell viability was assessed by addition of MTS during the last four hours of Poly IC treatment. The results for compounds 9, 1, and 10 are depicted in FIG. 6.

[8] = system: Malme 3M melanoma cells; assay: Titration of sensitization to TRAIL, MTS cell viability; assay type: cell-based, human; conditions: Malme (Malme 3M); compound 0.97 nM-2000 nM for 3 or 24 h, then 10 ng/ml TRAIL for 24 h
Description: as §4
(§5) For titration experiments in the presence or absence of TRAIL, cells were treated with various doses of compound 8 (0.97 nM-2000 nM) for 3 or 24 h followed by 10 ng/ml of recombinant TRAIL for 24 h. Cell viability was assessed by addition of MTS during the last four hours of TRAIL treatment. The results with SK MEL28, M14, and Malme cells are depicted in FIGS. 7A-7C, respectively.
(§6) Titration experiments were conducted as described in Example 5.

[9] = system: M14 melanoma cells; assay: as above; assay type: cell-based, human; conditions: compound 0.97 nM-2000 nM for 3 or 24 h, then 10 ng/ml TRAIL for 24 h
Description: as §4, §5, §6

[10] = system: SK MEL28 melanoma cells; assay: as above; assay type: cell-based, human; conditions: compound 0.97 nM-2000 nM for 3 or 24 h, then 10 ng/ml TRAIL for 24 h
Description: as §4, §5

CC1=C(C)C(=O)OC([C@](C)(O)[C@]2(O)CC[C@@]3(O)C4CC=C5C(=O)C=CC(=O)[C@]5(C)C4CC[C@]23C)C1 (stereo partly shown) gave a melting point of 176 to 178 °C.
In the case of CC1(C)CCC(CN2CCN(c3ccc(C(=O)NS(=O)(=O)c4ccc(NCC5CCOCC5)c([N+](=O)[O-])c4)c(Oc4cnc5[nH]ccc5c4)c3)CC2)=C(c2ccc(Cl)cc2)C1 [ABT-199], the “percentage decrease in cell number, agent alone” value (shortened to “percentage decrease”) [1] is reported as “little to no response due to concentration” and the “percentage decrease” value [2] is reported as “little to no response due to concentration”.
In the case of CN(C)CC[C@H](CSc1ccccc1)Nc1ccc(S(=O)(=O)NC(=O)c2ccc(N3CCN(Cc4ccccc4-c4ccc(Cl)cc4)CC3)cc2)cc1[N+](=O)[O-] [ABT-737], the “percentage decrease” value [1] is reported as “little to no response due to concentration” and the “percentage decrease” value [2] is reported as “little to no response due to concentration”.
For CN[C@@H](C)C(=O)N[C@H](C(=O)N1CCC[C@H]1C(=O)Nc1snnc1-c1ccccc1)C1CCCCC1 [GDC-0152], the “percentage decrease” value [1] was “little to no response due to concentration” and the “percentage decrease” value [2] was “little to no response due to concentration”.
With CN[C@@H](C)C(=O)N[C@H](C(=O)N1CCC[C@H]1c1nc(C(=O)c2ccc(F)cc2)cs1)C1CCCCC1 [LCL-161] the “percentage decrease” value [1] was “little to no response due to concentration” and the “percentage decrease” value [2] was “little to no response due to concentration”.
In the case of CC[C@H](NC(=O)[C@H](C)NC)C(=O)N1C[C@@H](O)C[C@H]1Cc1c(-c2[nH]c3cc(F)ccc3c2C[C@@H]2C[C@H](O)CN2C(=O)[C@H](CC)NC(=O)[C@H](C)NC)[nH]c2cc(F)ccc12 [birinapant], the “percentage decrease” value [1] is reported as “little to no response due to concentration” and the “percentage decrease” value [2] is reported as “little to no response due to concentration”.
With CC(=O)OC[C@]12CC[C@H]3[C@@H](C[C@H]4O[C@]45CC=CC(=O)[C@]35C)[C@]1(O)CC[C@@]2(O)[C@@](C)(O)[C@H]1CC(C)=C(C)C(=O)O1 [compound 1, physachenolide C] the “promoting caspase-8 activation in response to subsequent exposure to poly IC” value [3] was “more active than compound 9”, the “sensitization to TRAIL apoptosis” value ([1]; 50 ng/mL TRAIL) was “superior sensitizer” and the “reduction in cell number by poly IC in combination with compound, in presence of ZVAD-FMK” value [4] was “completely blocked”. The “observation at the tumor site accompanying decrease in tumor burden” value [5] was “massive tumor destruction and scabbing at the tumor site”, the “tumor growth and volume (tumor burden)” value ([5]; versus vehicle control, ****P<0.0001, 20 mg/kg) was “significant reduction in tumor growth and volume” and the “sensitization to TRAIL apoptosis” value ([2]; 25 ng/mL TRAIL) was “significant activity”. For the same molecule, the “reducing the levels of cFLIPL+S” value [6] was “more active than compound 9” and the “apoptosis by the compound and poly IC combination after incubation with bafilomycin-A1” value [7] was “significantly reduced subsequent apoptosis”.
In the case of “biotinylated derivative of 4β-hydroxywithanolide E [compound 8]”, the “sensitization to apoptosis by TRAIL” value [8] is reported as “sensitized; also recorded: more potent than compound 1 at lower concentrations”, the “sensitization to apoptosis by TRAIL” value [9] is reported as “sensitized; also recorded: more potent than compound 1 at lower concentrations” and the “sensitization to apoptosis by TRAIL” value [10] is reported as “sensitized”.
